# Experimental data: patent publication US7026313B2, “2-thia-1,6,8-triaza-naphthalene-2,2-dioxides are kinase inhibitors” (Warner-Lambert Company, priority 2002, dated 2006)
# How the values were obtained:
# neointima formation = settings: intraluminal exposure of a denuded rat carotid artery; cited from earlier work
# cdk1/cyclin B = cdk1/cyclin B (Homo sapiens, UniProt P06493); assay: Assay for inhibition of cdk1 (cdk1/cyclin B), 32P filter plate; format: biochemical; settings: retinoblastoma protein substrate, read-out: CYCK1B IC50
# Protocol: (§1) Assay for Inhibition of cdk1 and cdk2
# (§2) Cdk1 and cdk2 enzyme assays for IC50 determinations and kinetic evaluation were performed as follows. 96-well filter plates (Millipore MADVN6550) were used. The total volume of each well in the assay was 0.1 mL in Buffer A (20 mM TRIS (pH 7.4), 50 mM NaCl, 1 mM dithiothreitol, 10 mM MgCl2), to which was added […] containing 0.25 μCi [^32P]ATP, 20 ng enzyme (cdk2/cyclin E, cdk2/cyclin A, or cdk1/cyclin B), 1 μg retinoblastoma protein, and appropriate dilutions in Buffer A of the particular test compound. Buffer A alone without added test compound was employed as a control for no inhibition. Buffer A containing excess EDTA was used to determine the level of background ^32P in the absence of enzyme activity. All components except the ATP were added to the wells, and the plate was placed on a plate mixer for 2 minutes. The reaction was initiated by addition of [^32P]ATP, and the plate was incubated at 25° C. for 15 minutes. The reaction was terminated by addition of 0.1 mL 20% TCA. The plate was kept at 4° C. for at least 1 hour to allow the substrate to precipitate. The wells were then washed five times with 0.2 mL 10% TCA, and ^32P incorporation was determined with a beta plate counter (Wallac Inc., Gaithersburg, Md.). The IC50 of the test compound was determined using the median effect method (Chou, T-C and Talalay, P. Applications of the median effect principle for the assessment of low-dose risk of carcinogens and for the quantitation of synergism and antagonism of chemotherapeutic agents. In: New Avenues in Developmental Cancer Chemotherapy (Eds. Harrap, K. T. and Connors, T. A.), pp. 37–64. Academic Press, New York, 1987).
# cdk2/cyclin A = cdk2/cyclin A (Homo sapiens, UniProt P24941); assay: Assay for inhibition of cdk2 (cdk2/cyclin A), 32P filter plate; format: biochemical; settings: retinoblastoma protein substrate, read-out: CYCK2A IC50
# Protocol: as §1, §2
# cdk2/cyclin E = cdk2/cyclin E (Homo sapiens, UniProt P24941); assay: Assay for inhibition of cdk2 (cdk2/cyclin E), 32P filter plate; format: biochemical; settings: retinoblastoma protein substrate, read-out: CYCK2E IC50
# Protocol: as §1, §2
# cdk4/Cyclin D = cdk4/Cyclin D (Homo sapiens, UniProt P11802); assay: Assay for inhibition of cdk4/Cyclin D, 32P filter plate; format: biochemical; settings: for IC50: cdk4, 25 μM ATP, retinoblastoma protein substrate, read-out: CYCK4 IC50
# Protocol: Assay for Inhibition of cdk4/Cyclin D
# The cdk4 enzyme assay for IC50 determination and kinetic evaluation was performed as follows: 96-well filter plates (Millipore MADVN6550) were used. The total volume was 0.1 mL containing a final concentration of buffer A (20 mM TRIS (tris[hydroxymethyl]aminomethane) (pH 7.4), 50 mM NaCl, 1 mM dithiothreitol, 10 mM MgCl2), 25 μM ATP containing 0.25 μCi [^32P]ATP, 20 ng Cdk4, 1 μg retinoblastoma protein, and the test compound at appropriate dilutions in buffer A. Buffer A alone without added test compound was employed as a control for no inhibition. Buffer A containing excess EDTA was used to determine the level of background ^32P in the absence of enzyme activity. All components except the ATP were added to the wells, and the plate was placed on a plate mixer for 2 minutes. The reaction was started by adding [^32P]ATP, and the plate was incubated at 25° C. for 15 minutes. The reaction was terminated by addition of 0.1 mL 20% trichloroacetic acid (TCA). The plate was kept at 4° C. for at least 1 hour to allow the substrate to precipitate. The wells were then washed five times with 0.2 mL 10% TCA, and ^32P incorporation was determined with a beta plate counter (Wallac Inc., Gaithersburg, Md.).
# [1] = molecular target: T1, human FGF1(flg) receptor tyrosine kinase (Homo sapiens, UniProt P11362); assay: FGF receptor (FGFr) tyrosine kinase assay; format: biochemical; settings: FGFr enzyme lysate, Poly (4:1) glutamate-tyrosine substrate
# T1 construct: amplify a fragment of DNA that codes for the intracellular tyrosine kinase domain; made in house; host or cells: SF9 insect cells (baculovirus); crude cell lysate used
# Excerpt: (§3) For PDGF receptor (PDGFr) and FGF receptor (FGFr) tyrosine kinase assays, full-length cDNAs for the mouse PDGF-β and human FGF1(flg) receptor tyrosine kinases were obtained from J. Escobedo and prepared as described previously (Escobedo et al., J. Biol. Chem., 1988;262:1482–1487). PCR primers were designed to amplify a fragment of DNA that codes for the intracellular tyrosine kinase domain. The fragment was inserted into a baculovirus vector, cotransfected with AcMNPV DNA, and the recombinant virus was isolated. SF9 insect cells are infected with the virus to overexpress the protein, and the cell lysate was used for the assay.
# (§4) PDGFr and FGFr enzyme assays were performed in 96-well plates (100 μL/incubation/well), and conditions were optimized to measure the incorporation of ^32P from [γ^32P]ATP into a glutamate-tyrosine co-polymer substrate. Briefly, to each well was added 82.5 μL incubation buffer containing 25 mM Hepes (pH 7.0), 150 mM NaCl, 0.1% Triton X-100, 0.2 mM PMSF, 0.2 mM Na3VO4, 10 mM MnCl2, and 750 μg/mL Poly (4:1) glutamate-tyrosine followed by 2.5 μL inhibitor and 5 μL enzyme lysate (7.5 μg/μL FGFr or 6.0 μg/μL PDGFr) to initiate the reaction. Following a 10-minute incubation at 25° C., […] [γ^32P]ATP (0.4 μCi plus 50 μM ATP) was added to each well, and samples were incubated for an additional 10 minutes at 25° C. The reaction was terminated by the addition of 100 μL 30% trichloroacetic acid (TCA) containing 20 mM sodium pyrophosphate and precipitation of material onto glass fiber mats (Wallac). Filters were washed three times with 15% TCA containing 100 mM sodium pyrophosphate, and the radioactivity retained on the filters was counted in a Wallac 1250 Betaplate reader. Nonspecific activity was defined as radioactivity retained on the filters following incubation of samples with buffer alone (no enzyme). Specific enzymatic activity (enzyme plus buffer) was defined as total activity minus nonspecific activity. The concentration of a compound that inhibited specific activity by 50% (IC50) was determined based on the inhibition curve.
# [2] = molecular target: T2, mouse PDGF-β receptor tyrosine kinase (Mus musculus, UniProt P05622); assay: PDGF receptor (PDGFr) tyrosine kinase assay; format: biochemical; settings: PDGFr enzyme lysate, Poly (4:1) glutamate-tyrosine substrate
# T2 construct: amplify a fragment of DNA that codes for the intracellular tyrosine kinase domain; made in house; host or cells: SF9 insect cells (baculovirus); crude cell lysate used
# Excerpt: as §3, §4
# [3] = system: herpes simplex virus (HSV); settings: related art (Schang et al.); cited from earlier work
# T1 sequence (P11362 478-767 limits assumed): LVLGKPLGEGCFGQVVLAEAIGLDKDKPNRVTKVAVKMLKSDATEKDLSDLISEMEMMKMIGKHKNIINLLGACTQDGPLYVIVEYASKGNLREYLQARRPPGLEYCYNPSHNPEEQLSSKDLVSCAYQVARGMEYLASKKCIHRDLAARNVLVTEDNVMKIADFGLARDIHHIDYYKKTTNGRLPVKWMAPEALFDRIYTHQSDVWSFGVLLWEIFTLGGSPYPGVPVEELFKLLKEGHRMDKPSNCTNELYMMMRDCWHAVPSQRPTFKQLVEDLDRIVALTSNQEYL
# Sequence of cdk4/Cyclin D (P11802 whole entry, species assumed): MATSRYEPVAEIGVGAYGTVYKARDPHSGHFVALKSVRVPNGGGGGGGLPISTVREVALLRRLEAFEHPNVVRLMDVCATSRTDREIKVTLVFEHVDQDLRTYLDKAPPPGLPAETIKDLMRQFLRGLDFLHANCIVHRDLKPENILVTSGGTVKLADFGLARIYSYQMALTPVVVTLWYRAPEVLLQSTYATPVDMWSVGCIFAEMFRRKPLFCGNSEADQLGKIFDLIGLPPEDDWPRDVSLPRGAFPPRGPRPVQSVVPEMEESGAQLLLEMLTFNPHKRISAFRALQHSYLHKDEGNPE
# Sequence of cdk4/Cyclin D (P24385 whole entry partner, species assumed): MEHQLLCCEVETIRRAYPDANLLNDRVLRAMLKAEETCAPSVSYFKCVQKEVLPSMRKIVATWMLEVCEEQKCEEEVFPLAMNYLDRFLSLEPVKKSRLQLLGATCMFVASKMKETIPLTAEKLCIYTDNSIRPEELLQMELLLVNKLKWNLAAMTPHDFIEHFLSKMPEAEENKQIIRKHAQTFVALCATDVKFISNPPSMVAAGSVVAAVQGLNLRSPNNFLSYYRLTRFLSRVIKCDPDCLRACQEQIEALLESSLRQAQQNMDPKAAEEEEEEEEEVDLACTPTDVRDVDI
# T2 sequence (P05622 599-961 limits assumed): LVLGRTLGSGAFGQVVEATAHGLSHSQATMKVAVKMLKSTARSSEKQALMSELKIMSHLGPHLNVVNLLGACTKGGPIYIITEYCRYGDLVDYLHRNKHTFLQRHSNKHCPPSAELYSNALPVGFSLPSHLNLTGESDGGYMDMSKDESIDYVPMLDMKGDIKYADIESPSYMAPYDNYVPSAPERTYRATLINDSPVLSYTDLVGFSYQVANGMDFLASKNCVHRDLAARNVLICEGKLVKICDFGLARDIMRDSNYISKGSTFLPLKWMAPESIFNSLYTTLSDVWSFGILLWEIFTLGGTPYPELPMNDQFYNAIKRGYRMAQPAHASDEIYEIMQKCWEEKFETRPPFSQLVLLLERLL
# Sequence of cdk1/cyclin B (P06493 whole entry, species assumed): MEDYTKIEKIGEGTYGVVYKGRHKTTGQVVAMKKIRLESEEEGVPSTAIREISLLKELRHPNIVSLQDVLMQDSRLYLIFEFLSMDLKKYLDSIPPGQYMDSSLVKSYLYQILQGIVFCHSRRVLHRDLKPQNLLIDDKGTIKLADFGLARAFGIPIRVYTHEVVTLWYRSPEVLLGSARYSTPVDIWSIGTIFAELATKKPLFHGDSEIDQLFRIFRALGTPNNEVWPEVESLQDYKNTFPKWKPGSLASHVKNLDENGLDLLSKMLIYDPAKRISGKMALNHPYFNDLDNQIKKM
# Sequence of cdk1/cyclin B (P14635 whole entry partner, species assumed): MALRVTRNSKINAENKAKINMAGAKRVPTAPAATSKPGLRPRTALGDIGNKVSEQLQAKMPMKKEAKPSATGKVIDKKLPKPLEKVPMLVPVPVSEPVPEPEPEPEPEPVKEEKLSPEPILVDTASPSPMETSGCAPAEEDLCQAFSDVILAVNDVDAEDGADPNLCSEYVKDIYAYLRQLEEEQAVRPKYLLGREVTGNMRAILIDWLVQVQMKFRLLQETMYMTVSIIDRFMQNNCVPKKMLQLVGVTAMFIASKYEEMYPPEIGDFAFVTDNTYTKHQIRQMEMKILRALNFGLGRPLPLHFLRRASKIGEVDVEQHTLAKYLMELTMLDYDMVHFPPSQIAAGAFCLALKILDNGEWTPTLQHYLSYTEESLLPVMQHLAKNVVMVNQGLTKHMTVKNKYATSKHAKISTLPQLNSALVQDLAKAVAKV
SMILES,IC50 (cdk1/cyclin B),IC50 (cdk2/cyclin A),IC50 (cdk2/cyclin E),IC50 (cdk4/Cyclin D),"selectivity for Cdk4 over cdk1, cdk2, FGF and PDGF (cdk4/Cyclin D; conclusion from Table 2)",IC50 [1],IC50 [2],inhibition of neointima formation (neointima formation),HSV replication [3]
COc1ccc(CNc2nc(N(CCO)CCO)nc3c2ncn3C(C)C)cc1 [CVT-313],,,,,,,,greater than 80%,
"O=S1(=O)C=Cc2cnc(Nc3ccc(N4CCNCC4)cc3)nc2N1C1CCCC1 [Compound 4, (1-Cyclopentyl-2,2-dioxo-1,2-dihydro-2l^6-thia-1,6,8-triaza-naphthalen-7-yl)-(4-piperazin-1-yl-phenyl)-amine]",360 nM,106 nM,145 nM,5 nM,specifically inhibits Cdk4,179 nM,1070 nM,,
CC[C@H](CO)Nc1nc(NCc2ccccc2)c2ncn(C(C)C)c2n1 [roscovitine],,,,,,,,,inhibited

# Now from value to compound, other results behind:
IC50 (cdk1/cyclin B),IC50 (cdk2/cyclin A),IC50 (cdk2/cyclin E),IC50 (cdk4/Cyclin D),"selectivity for Cdk4 over cdk1, cdk2, FGF and PDGF (cdk4/Cyclin D; conclusion from Table 2)",IC50 [1],IC50 [2],SMILES,inhibition of neointima formation (neointima formation),HSV replication [3]
3600 nM,294 nM,600 nM,1.3 nM,,,,"CC1(C)CN(c2ccc(Nc3ncc4c(n3)N(C3CCCC3)S(=O)(=O)C=C4)cc2)CCN1 [Compound 6, (1-Cyclopentyl-2,2-dioxo-1,2-dihydro-2l^6-thia-1,6,8-triaza-naphthalen-7-yl)-[4-(3,3-dimethyl-piperazin-1-yl)-phenyl]-amine]",,
36000 nM,5450 nM,26000 nM,93 nM,,575 nM,290 nM,"CC1=Cc2cnc(Nc3ccc(N4CCNCC4)cc3)nc2N(C2CCCC2)S1(=O)=O [Compound 10, (1-Cyclopentyl-3-methyl-2,2-dioxo-1,2-dihydro-2l^6-thia-1,6,8-triaza-naphthalen-7-yl)-(4-piperazin-1-yl-phenyl)-amine]",,
,4000 nM,> 5000 nM,50 nM,,1030 nM,216 nM,"CCC1=Cc2cnc(Nc3ccc(N4CCNCC4)cc3)nc2N(C2CCCC2)S1(=O)=O [Compound 14, (1-Cyclopentyl-3-ethyl-2,2-dioxo-1,2-dihydro-2l^6-thia-1,6,8-triaza-naphthalen-7-yl)-(4-piperazin-1-yl-phenyl)-amine]",,
4140 nM,930 nM,930 nM,45 nM,,,,"O=S1(=O)CCc2cnc(Nc3ccc(N4CCNCC4)cc3)nc2N1C1CCCC1 [Compound 16, (1-Cyclopentyl-2,2-dioxo-1,2,3,4-tetrahydro-2l^6-thia-1,6,8-triaza-naphthalen-7-yl)-(4-piperazin-1-yl-phenyl)-amine]",,
